# Columns and labels:
# [1] = test system: Streptococcus-induced rheumatoid arthritis; experiment: Streptococcus-induced rheumatoid arthritis (RA) model in rats; format: in vivo; details: female Lewis rats, 15 mpk intragastric daily for 25 days
# Procedure: In the experiment, 6- to 9-week-old female Lewis rats (Beijing Vital River) were used. Each group consisted of 6 rats, and they were given the cell wall peptidoglycan complexes of Streptococcus and several other species of bacteria by intraperitoneal administration (2-3 mg per rat) on D1, and were given the control compound (15 mpk) and the compound of formula I (15 mpk) by intragastric administration daily for 25 consecutive days. The arthritis in rats was scored in different phases. The scoring criteria are as follows: […] The scoring criteria are as follows: 0 points, no redness and swelling; 1 point, 1-2 red and swollen interphalangeal joints; 2 points, 3-4 red and swollen interphalangeal joints; 3 points, more than 4 red and swollen interphalangeal joints; 4 points, severe redness and swelling in toes or fingers to ankle joints or wrist joints.
# [2] = Liver microsomal stability experiment (monkey); format: in vitro ADME, cynomolgus monkey; details: monkey liver microsomes
# Procedure: (§1) A 0.1 M solution of dipotassium phosphate in distilled water (containing 1 mM ethylenediaminetetraacetic acid) was taken. Then the pH was adjusted to 7.4 with a 0.1 M solution of potassium dihydrogen phosphate in distilled water (containing 1 mM ethylenediaminetetraacetic acid).
# (§2) • Rat: SD Rat Liver Microsomes, Cat. No.: LM-DS-02M, RILD Research Institute for Liver Diseases (Shanghai) Co. Ltd. • Monkey: Cynomolgus Monkey Liver Microsomes, Cat. No.: LM-SXH-02M, RILD Research Institute for Liver Diseases (Shanghai) Co. Ltd. • Human: Pooled Human Liver Microsomes (Mongolian), Cat. No.: LM-R-02M, RILD Research Institute for Liver Diseases (Shanghai) Co. Ltd.
# (§3) A 10 mM solution of each of the control compound and test compounds was prepared in DMSO. Then 10 μL of the solution was added to 190 μL of acetonitrile to form a 0.5 mM stock solution. 1.5 μL of the 0.5 mM stock solution was measured out, and […] of 20 mg/mL liver microsomes and 479.75 μL of the buffer were added. (The actual preparation amount can be adjusted according to use).
# (§4) 10 mg/mL of reduced coenzyme II (NADPH) was prepared in the buffer. A 96-well plate was placed on ice. Wells corresponding to different time points (0, 10, 30, 60 and 90 min, Non-NADPH) were set for each compound. […] The mixture was analyzed on an AB SCIEX ExionLC-Triple Quad 5500 high-performance liquid chromatograph-mass spectrometer. […]
# [3] = Liver microsomal stability experiment (rat); format: in vitro ADME; details: rat liver microsomes
# Procedure: as §1, §2, §3, §4
# [4] = Liver microsomal stability experiment (human); format: in vitro ADME
# Procedure: as §1, §2, §3, §4
smiles,measurement,setting,value
COc1cc(C)c2[nH]ccc2c1CN1CC[C@H](OCC2CC2)C[C@H]1c1ccc(C(=O)O)cc1 [Compound of formula I],"Arthritis score (in words, FIG. 23)",[1],can improve the arthritis score
same,Effect on arthritis score versus control compound (in words),[1],significantly better effect than that of the control compound
same,MMS (monkey) Remaining (T = 90 min),[2],93.32%
same,MMS (rat) Remaining (T = 90 min),[3],89.14%
same,MMS (human) Remaining (T = 90 min),"[4]; human liver microsomes, 90 min",91.04%
same,Liver microsomal stability (in words),"[4]; rat, monkey and human liver microsomes",significant liver microsomal stability

# From US20260151379A1, “SALT TYPE AND CRYSTAL FORM OF COMPLEMENT FACTOR B INHIBITOR, AND PREPARATION METHOD THEREFOR AND APPLICATION THEREOF” (SHANGHAI MEIYUE BIOTECH DEVELOPMENT CO., LTD., priority 2022, published 2026)
